Measured values as given in US5763464A, “Retroviral agents containing anthranilamide, substituted benzamide and other subunits, and methods of using same” (The United States of America as represented by the …, priority 1995, dated 1998).
“Also recorded” adds a separate entry of the source. Like-named read-outs stand apart in the source and are kept apart here.

Experiments:
in vitro = settings: human, cem cells
[1] = test system: HIV-1 (CEM cells chronically infected with HIV-1); test: Anti-retroviral activity in CEM cells chronically infected with HIV-1, soluble formazan assay; assay type: cell-based; settings: Human immunodeficiency virus 1, CCRF-CEM
Method: Using the soluble formazan assay described by Weislow et al. (J. Nat'l. Cancer Inst., 81, 577-586 (1989)), CEM cells chronically infected with HIV-1 were used to assay the anti-retroviral activity of test compounds described herein. The concentration of compound that inhibits 50% of viral activity (EC50; determined as described in Weislow et al. (1989), supra) and the inhibition constant (Ki, as defined in Example 7) for the compound were determined.

CEM cells = test: Toxicity (IC50) in CEM cells, soluble formazan assay
HIV-1 = settings: cited from earlier work
[2] = Toxicity (IC50) in CEM cells, soluble formazan assay; settings: human, cem cells
α-1 acid glycoprotein = test: In vitro activity in the presence of α-1 acid glycoprotein
[3] = target: T1, HIV-1 protease (wild-type, WT) (Human immunodeficiency virus type 1 group M subtype B, UniProt P04585); test: biochemical
T1 construct: purified HIV-1 protease (wild-type, WT)
Method: The inhibition constants (Ki) for the compounds of the above examples were determined using purified HIV-1 protease (wild-type, WT) (Tables I, II and III). Ki is an inhibition constant of a given compound as derived by enzyme kinetics. A low Ki represents a high affinity of the compound for the enzyme, i.e., tight binding or low dissociation. Inhibition of the cleavage was assayed using a fluorogenic substrate available from Molecular Probes, Inc., Eugene, Oreg., and described in Kageyama et al., Antimicrob. Agents. Chemother., 37, 272 (1993), and a fluorogenic substrate available from Bachem California, Torrance, Calif., and described in Kageyama et al. (1993), supra. Percent inhibition is the percentage inhibition of an enzyme's activity by a given compound at a given concentration.

[4] = comparison table, read-out: EC50
[5] = comparison table, literature values by footnote

For `CC(C)[C@H](NC(=O)N(C)Cc1ccccn1)C(=O)N[C@@H](Cc1ccccc1)[C@H](O)[C@H](O)[C@H](Cc1ccccc1)NC(=O)[C@@H](NC(=O)N(C)Cc1ccccn1)C(C)C` [A-77003, reference compound], the selectivity ratio (in vitro) was > 71, the EC50 [1, 4] was 140 nM and the IC50 (CEM cells; Homo sapiens, CCRF-CEM) was > 10000 nM. For the same molecule, the EC50 (HIV-1; Example 13, literature values) was 200 nM.
For `CC(C)C(NC(=O)OCc1ccccc1)C(=O)N[C@@H](Cc1ccccc1)[C@@H](O)[C@@H](O)[C@H](Cc1ccccc1)NC(=O)c1ccccc1NC(=O)OCc1ccccn1` (stereo partly shown) [DN-14], the EC50 ([1]; Example 13, CEM cells) was 6.5 nM, the EC50 ([1]; comparison table) was 6 nM and the selectivity ratio [2] was > 16700. The “toxicity (from IC50/EC50)” value (CEM cells; Example 13) was “not toxic”, the IC50 (CEM cells; Example 13, unit inferred) was > 100000 nM and the IC50 (CEM cells; Homo sapiens, CCRF-CEM) was > 100000 nM. For the same molecule, the IC50 (CEM cells; comparison table) was > 100000 nM and the “in vitro activity in presence of α-1 acid glycoprotein” value (α-1 acid glycoprotein) was “not affected by the presence of α-1 acid glycoprotein; also recorded: unaffected in the presence of α-1 acid glycoprotein”.
For `CC(C)(C)NC(=O)[C@@H]1CN(Cc2cccnc2)CCN1C[C@@H](O)C[C@@H](Cc1ccccc1)C(=O)N[C@H]1c2ccccc2C[C@H]1O` [Indinavir], the EC50 (HIV-1; [5]) is given as 50 nM.
For `CSC[C@H](NC(=O)COc1cccc2cnccc12)C(=O)N[C@@H](Cc1ccccc1)[C@H](O)C(=O)N1CSC[C@H]1C(=O)NC(C)(C)C` [KNI-272, reference compound], the selectivity ratio (in vitro) was > 3570, the EC50 ([1]; Example 13, CEM cells, read-out: EC50) was 4.2 nM and the EC50 [1, 4] was 28 nM. The IC50 (CEM cells; Homo sapiens, CCRF-CEM) was > 100000 nM.
With `O=C(N[C@@H](Cc1ccccc1)[C@H](O)[C@H](O)[C@H](Cc1ccccc1)NC(=O)O[C@H]1CCOC1)O[C@H]1CCOC1` [RS-205] the EC50 ([1]; Table I) was 16000 nM, the IC50 (CEM cells; Homo sapiens, CCRF-CEM) was > 150000 nM and the Ki [3] was 4.6 nM.
With `Cc1c(O)cccc1C(=O)N[C@@H](Cc1ccccc1)[C@@H](O)C[C@H](Cc1ccccc1)NC(=O)OC(C)(C)C` [RS-208, (2S,3S,5S)-2-[N-[(3-hydroxy-2-methylphenyl)carbonyl]amino]-5-[N-(tert-butyloxycarbonyl)amino]-1,6-diphenyl-3-hydroxy hexane] the EC50 ([1]; Table I, read-out: EC50) was 470 nM, the IC50 (CEM cells; Homo sapiens, CCRF-CEM) was 23000 nM and the Ki ([3]; Table I, unit inferred, read-out: Ki) was 0.213 nM.
In the case of `CC(C)c1nc(CN(C)C(=O)N[C@H](C(=O)N[C@@H](Cc2ccccc2)C[C@H](O)[C@H](Cc2ccccc2)NC(=O)OCc2cncs2)C(C)C)cs1` [Ritonavir], the EC50 (HIV-1; Example 13, literature values) is given as 36 nM and the EC50 (HIV-1; [5]) is given as 36 nM.
For `CC(C)(C)NC(=O)[C@@H]1C[C@@H]2CCCC[C@@H]2CN1C[C@@H](O)[C@H](Cc1ccccc1)NC(=O)[C@H](CC(N)=O)NC(=O)c1ccc2ccccc2n1` [Sequinavir], the EC50 (HIV-1; Example 13, literature values) is given as 10 nM and the EC50 (HIV-1; [5]) is given as 10 nM.
In the case of `CC(C)CN(C[C@@H](O)[C@H](Cc1ccccc1)NC(=O)O[C@H]1CCOC1)S(=O)(=O)c1ccc(N)cc1` [VX-478], the EC90 (HIV-1; comparison table, Kim et al., 1995, read-out: EC90 (EC50 column, footnote b)) is listed as 40 nM.
